Data from publication PMC11156954, “Inhibition and transport mechanisms of the ABC transporter hMRP5” (Nature Communications, 2024).
No end group written: not given here.

Key:
hMRP5-Δ1-94 = target: T1, hMRP5-Δ1-94 (Homo sapiens, UniProt O15440); experiment: cryo-EM of the reconstituted peptide complex; format: binding; settings: peptide and hMRP5-Δ1-94 at 2:1 ratio, on ice, 1 h; inward-open complex
T1 construct: The codon-optimized full-length human ABCC5 gene encoding the MRP5 protein (UniProt ID: O15440); 8xHis (C); 2xstrep (C); made in house; host or cells: HEK293F
T1 sequence (O15440 95-1437 limits assumed, stated change not applied): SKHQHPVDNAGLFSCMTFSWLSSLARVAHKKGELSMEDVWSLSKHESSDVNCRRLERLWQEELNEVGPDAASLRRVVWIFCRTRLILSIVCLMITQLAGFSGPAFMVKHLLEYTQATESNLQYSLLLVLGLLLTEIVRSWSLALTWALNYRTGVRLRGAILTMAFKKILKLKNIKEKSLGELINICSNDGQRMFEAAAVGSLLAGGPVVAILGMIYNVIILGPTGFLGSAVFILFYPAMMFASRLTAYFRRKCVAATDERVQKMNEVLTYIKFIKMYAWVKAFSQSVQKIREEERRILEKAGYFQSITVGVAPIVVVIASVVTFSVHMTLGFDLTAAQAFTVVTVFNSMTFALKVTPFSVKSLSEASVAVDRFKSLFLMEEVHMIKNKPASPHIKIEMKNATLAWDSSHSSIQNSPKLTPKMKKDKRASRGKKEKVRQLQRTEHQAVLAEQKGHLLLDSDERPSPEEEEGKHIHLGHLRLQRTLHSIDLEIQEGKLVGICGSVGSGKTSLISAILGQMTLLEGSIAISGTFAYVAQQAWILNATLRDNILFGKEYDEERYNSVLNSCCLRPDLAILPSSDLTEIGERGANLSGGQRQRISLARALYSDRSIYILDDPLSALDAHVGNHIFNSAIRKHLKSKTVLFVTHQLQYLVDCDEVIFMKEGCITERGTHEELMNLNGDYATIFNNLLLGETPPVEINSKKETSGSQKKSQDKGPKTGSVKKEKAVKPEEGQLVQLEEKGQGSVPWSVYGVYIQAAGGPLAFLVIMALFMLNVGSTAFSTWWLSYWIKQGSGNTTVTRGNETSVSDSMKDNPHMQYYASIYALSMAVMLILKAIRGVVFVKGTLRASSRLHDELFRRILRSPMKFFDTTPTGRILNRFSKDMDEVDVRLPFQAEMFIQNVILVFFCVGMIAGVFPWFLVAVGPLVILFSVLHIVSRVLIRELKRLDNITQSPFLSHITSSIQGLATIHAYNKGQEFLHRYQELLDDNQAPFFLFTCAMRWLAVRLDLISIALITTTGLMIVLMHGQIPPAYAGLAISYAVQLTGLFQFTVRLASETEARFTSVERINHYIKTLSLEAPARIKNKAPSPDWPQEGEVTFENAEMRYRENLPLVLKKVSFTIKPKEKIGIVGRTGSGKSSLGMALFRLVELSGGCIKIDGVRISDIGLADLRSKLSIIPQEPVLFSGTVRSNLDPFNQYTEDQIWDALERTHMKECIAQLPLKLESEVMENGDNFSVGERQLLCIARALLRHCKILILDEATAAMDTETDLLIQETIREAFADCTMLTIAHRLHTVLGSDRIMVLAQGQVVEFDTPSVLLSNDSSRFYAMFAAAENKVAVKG
Method: To assess if D35C-E75C can structurally block the transport pathway, we incubated it with hMRP5-Δ1-94 at a 2:1 ratio for in vitro reconstitution. The resulting high-resolution structure of the reconstituted complex maintained an inward-open conformation with both NBDs separated (Fig. 4c and Supplementary Fig. 7a–d). […] Given its ability to effectively occlude the binding pocket, we termed the D35C-E75C peptide MRP5 potential peptide inhibitor (M5PI).
Freshly purified MRP5 protein was concentrated to ~5 mg/ml. Then, 5 μl proteins were added to the freshly glow-discharged (0.39 mBar air, 15 mA, 50 s) holey carbon grid (Quantifoil Au R1.2/1.3, 300 mesh). The grids were plunge-frozen in liquid ethane using an FEI Vitrobot Mark IV (Thermo Fisher Scientific) under the following conditions: waiting time, 11 s; blot time, 4 s; blot force, −2; temperature, 10 °C; and humidity, 100%. Next, the grids were transferred to and stored in liquid nitrogen until data acquisition. For the peptide M5PI-bound complex, the peptide and hMRP5-Δ1-94 were incubated together on ice at a ratio of 2:1 for 1 h before vitrification. […]
The single-particle analysis procedures for all states are summarized in the supplementary information (Supplementary Figs. 1, 2, 4, 5, 7 and 8). […] The overall resolution of the final map was determined by the 0.143 criterion of the gold-standard Fourier shell correlation. […]

GFP-hMRP5 = experiment: Doxorubicin transport assay in Xenopus laevis oocytes; format: cell-based, human; settings: oocytes expressing both hMRP5 and M5PI vs only hMRP5; 200 μM doxorubicin, 180 min; two-tailed t-test *P = 0.0442
Method: The transport assay was essentially done and modified as described. In brief, the cRNAs of C-terminal GFP-tagged hMRP5 and C-terminal mcherry-tagged M5PI were prepared from the linearized pcs2CAG vector DNA templates using the mMESSAGE mMACHINE T7 transcription system (Thermo Scientific, AM1344). Xenopus oocytes were injected with approximately 30 nl of cRNA (GFP-tagged hMRP5 and mcherry-tagged M5PI have the equal quantity 30 ng) or water after maintained in ND96 solution (96 mM NaCl, 2 mM KCl, 1 mM MgCl2, 1.8 mM CaCl2, 5 mM HEPES, pH 7.4) overnight. After 3 days of culture, the GFP and mcherry fluorescence of oocytes was detected using Nikon Confocal A1R, and oocytes showing similar fluorescence intensity were selected for assay. Then, oocytes were pre-incubated in Kulori buffer (90 mM NaCl, 1 mM KCl, 1 mM MgCl2, 5 mM HEPES, pH 7.4) for 5 min before being transferred to 1 ml Kulori buffer containing 200 μM doxorubicin for 180 min. The assay was stopped by removing the buffer and then washed with Kulori buffer at least 3 times and transferred into 1.5 ml tubes (3 oocytes per tube). Excess washing buffer was removed from the tube, and then 50 μl 50% methanol was added to the tube for oocyte homogenization by pipetting. The homogenized samples were centrifuged at 10,000 × g for 10 min at 4 °C, and the supernatants were transferred into new tubes and incubated at −20 °C until further analysis. The samples were acquired with a Q Exactive mass spectrometer coupled with UltiMate 3000 liquid chromatography system (Thermo scientific, CA, USA) after centrifugation at 20,000 × g for 15 min at 4 °C. A Hypersil GOLDTM C18 column (2.1 ×100 mm, 1.9 μm, Thermo Scientific) was used at a flow rate of 0.3 ml min^−1 for separation. Mobile phase A was 0.1% formic acid, while mobile phase B was acetonitrile modified with 0.1% formic acid. The mass spectrometer was operated in positive mode with a spray voltage of 3.5 kV. Full scan mass spectrometry data were recorded from the m/z range of 80–800. A standard dilution curve for quantification of doxorubicin was done. Statistical analysis of the transport assay results was performed using GraphPad Prism. Source data is provided as Source Data 6. The mass spectrometry data is provided as Supplementary Data 3.

## CSKFRRTRPLECQDALETAARAEGLSLDASMHSQLRILDEC (cysteines drawn unpaired) [M5PI]
hMRP5-Δ1-94
  EM density of bound peptide: clear EM density for the bound D35C-E75C peptide in the central cavity
GFP-hMRP5
  inhibition of doxorubicin transport, in words: contained a relatively higher amount of doxorubicin than oocytes expressing only hMRP5
